The NIST ThermoML archive (doi:10.1021/je401015e)

Details: Liquid; for mass density: Buoyancy - hydrostatic balance with magnetic suspension - one sinker

C=CCCCCC [1-heptene]
Details	mass density [kg/m3]	viscosity [mPa·s]
298.15 K, 98 kPa	694.51	0.362
298.15 K, 24510 kPa	718.23	0.451
298.15 K, 49030 kPa	734.7	0.544
298.15 K, 98060 kPa	765.58	0.739
298.15 K, 147100 kPa	783.57	0.942
298.15 K, 196130 kPa	800.85	1.226
298.15 K, 245160 kPa	816.79	1.499
303.15 K, 98 kPa	689.57	0.346
303.15 K, 24510 kPa	715	0.431
303.15 K, 49030 kPa	733.1	0.52
303.15 K, 98060 kPa	761.82	0.706
303.15 K, 147100 kPa	780.46	0.903
303.15 K, 196130 kPa	797.46	1.162
303.15 K, 245160 kPa	815.3	1.429
312.83 K, 98 kPa	680.92	0.314
322.39 K, 98 kPa	672.17	0.288
327.47 K, 24510 kPa	697.97	0.351
327.48 K, 98060 kPa	746.71	0.575
327.49 K, 98 kPa	668.07	0.278
327.49 K, 49030 kPa	718.4	0.429
327.63 K, 147100 kPa	767.87	0.741
327.63 K, 196130 kPa	786.42	0.925
327.67 K, 245160 kPa	805.58	1.136
340.21 K, 98 kPa	655.95	0.251
354.73 K, 98 kPa	643.5	0.224
359.63 K, 245160 kPa	791.61	0.883
359.74 K, 147100 kPa	750.76	0.587
359.75 K, 196130 kPa	773.85	0.726
359.87 K, 98060 kPa	730.37	0.457
359.96 K, 49030 kPa	699.31	0.34
360.03 K, 98 kPa	638.93	0.215
360.06 K, 24510 kPa	672.86	0.278
392.4 K, 245160 kPa	776.73	0.709
392.46 K, 196130 kPa	758.9	0.591
392.61 K, 147100 kPa	734.09	0.48
392.68 K, 49030 kPa	676.29	0.277
392.74 K, 98060 kPa	714.89	0.377
392.79 K, 24510 kPa	646.48	0.226
423.82 K, 196130 kPa	745.35	0.489
424.04 K, 147100 kPa	717.45	0.4
424.07 K, 245160 kPa	760.78	0.574
424.11 K, 24510 kPa	619.97	0.182
424.17 K, 49030 kPa	653.79	0.226
424.17 K, 98060 kPa	697.03	0.311
452.22 K, 196130 kPa	733.49	0.434
452.25 K, 98060 kPa	676.86	0.28
452.27 K, 245160 kPa	750.38	0.503
452.28 K, 147100 kPa	702.95	0.355
452.34 K, 49030 kPa	628.89	0.198
452.35 K, 24510 kPa	595.84	0.16
473.28 K, 196130 kPa	723.12	0.407
473.33 K, 147100 kPa	692.3	0.333
473.35 K, 245160 kPa	737.15	0.47
473.47 K, 98060 kPa	665.45	0.262
473.56 K, 49030 kPa	612.5	0.183
473.7 K, 24510 kPa	578.48	0.148

C=CCCCC [hex-1-ene]
Details	mass density [kg/m3]	viscosity [mPa·s]
298.15 K, 98 kPa	669.71	0.271
298.15 K, 24510 kPa	696.93	0.337
298.15 K, 49030 kPa	714.95	0.415
298.15 K, 98060 kPa	744.22	0.55
298.15 K, 147100 kPa	763.36	0.705
298.15 K, 196130 kPa	778.91	0.876
298.15 K, 245160 kPa	793.17	1.093
303.15 K, 98 kPa	664.87	0.256
303.15 K, 24510 kPa	690.93	0.321
303.15 K, 49030 kPa	711.55	0.395
303.15 K, 98060 kPa	741.4	0.525
303.15 K, 147100 kPa	761.37	0.67
303.15 K, 196130 kPa	776.19	0.84
303.15 K, 245160 kPa	791.19	1.034
312.92 K, 98 kPa	655.77	0.232
325.17 K, 98 kPa	644.12	0.21
325.99 K, 98060 kPa	729.28	0.442
326 K, 24510 kPa	675.1	0.274
326.02 K, 49030 kPa	694.93	0.328
326.05 K, 147100 kPa	750.05	0.561
326.12 K, 196130 kPa	767.98	0.694
326.15 K, 245160 kPa	783.2	0.836
364.25 K, 245160 kPa	767.68	0.628
364.63 K, 196130 kPa	751.74	0.54
364.69 K, 49030 kPa	670.17	0.254
364.73 K, 24510 kPa	645.55	0.214
364.75 K, 98060 kPa	706.69	0.346
364.83 K, 147100 kPa	731.74	0.437
398.25 K, 147100 kPa	715.97	0.363
398.35 K, 245160 kPa	753.74	0.516
398.37 K, 196130 kPa	736.05	0.444
398.43 K, 24510 kPa	618.11	0.17
398.78 K, 98060 kPa	687.13	0.287
398.87 K, 49030 kPa	645.8	0.211
422.37 K, 245160 kPa	743.17	0.456
422.71 K, 196130 kPa	726.21	0.389
422.74 K, 147100 kPa	703.54	0.319
422.9 K, 98060 kPa	672.81	0.252
423.1 K, 49030 kPa	630.04	0.184
423.18 K, 24510 kPa	598.39	0.146
452.77 K, 24510 kPa	575.45	0.124
453.14 K, 49030 kPa	608.12	0.16
453.14 K, 196130 kPa	712.63	0.338
453.19 K, 98060 kPa	656.91	0.218
453.28 K, 147100 kPa	687.84	0.277
453.52 K, 245160 kPa	732.58	0.397
471.55 K, 196130 kPa	704.21	0.315
471.64 K, 245160 kPa	725.42	0.371
471.73 K, 49030 kPa	598.79	0.15
471.78 K, 98060 kPa	646.27	0.204
471.92 K, 24510 kPa	560.56	0.115
472.02 K, 147100 kPa	680.82	0.26
